Reference: US7468370B2, “[1,7]naphthyridines as PDE4 inhibitors” (Novartis AG, priority 2002, dated 2008)
Structures can show the parent of a compound that is named as a salt.

Key:
human PDE4D = molecular target: T1, human PDE4D (Homo sapiens, UniProt Q08499); assay: PDE4 Isoenzyme Inhibition Assay (Scintillation Proximity Assay, [3H]-cAMP); format: biochemical; settings: recombinant 6His-tagged human PDE4D3 expressed in Sf21 cells; 1 μM cAMP; 1% DMSO; room temperature
T1 construct: PDE4 cDNA constructs containing the coding regions of the three isoenzymes; made in house; host or cells: Sf21 (Spodoptera frugiperda) insect cells, baculovirus (Bac-To-Bac)
T1 sequence (Q08499 1-673 isoform Q08499-2): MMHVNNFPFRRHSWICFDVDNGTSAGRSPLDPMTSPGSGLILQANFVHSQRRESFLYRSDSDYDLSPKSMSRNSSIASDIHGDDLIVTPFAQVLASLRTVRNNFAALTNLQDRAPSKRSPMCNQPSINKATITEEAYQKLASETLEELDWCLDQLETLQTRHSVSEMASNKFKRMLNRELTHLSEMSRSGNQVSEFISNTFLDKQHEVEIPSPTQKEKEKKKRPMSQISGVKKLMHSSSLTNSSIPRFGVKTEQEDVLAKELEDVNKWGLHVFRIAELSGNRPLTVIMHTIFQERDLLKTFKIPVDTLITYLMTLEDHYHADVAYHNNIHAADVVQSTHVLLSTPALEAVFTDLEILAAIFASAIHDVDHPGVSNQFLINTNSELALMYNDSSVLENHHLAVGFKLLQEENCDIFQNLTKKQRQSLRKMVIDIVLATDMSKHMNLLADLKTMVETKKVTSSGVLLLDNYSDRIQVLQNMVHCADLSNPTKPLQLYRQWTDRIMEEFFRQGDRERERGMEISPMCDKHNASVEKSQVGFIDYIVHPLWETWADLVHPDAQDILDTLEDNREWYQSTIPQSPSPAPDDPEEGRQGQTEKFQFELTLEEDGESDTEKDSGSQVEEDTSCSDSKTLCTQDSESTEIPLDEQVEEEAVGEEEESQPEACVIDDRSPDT
Protocol: PDE4 Expression: Sf21 cells are grown to a density of 2×10^6 cells/ml and infected with human PDE4A, PDE4B or PDE4D3 containing baculovirus to a multiplicity of infection (m.o.i.) of 1 for 72 hours. The infected cells are harvested by centrifugation at 1,400 g for 4 minutes at 4° C. and the cell pellets are frozen at −80° C. Sf21 (Spodoptera frugiperda 21) insect cells are routinely maintained at densities between 3×105 and 3×10^6 cells/ml in SF00 Serum Free Medium (Invitorgen Life Technologies). Sf21 cells (1×109) are resuspended in 100 ml cold (4° C.) Lysis Buffer (50 mM Na2HP04, 200 mM NaCl, 10 mM Imidazole). Cells are incubated on ice for 30 minutes then centrifuged at 15,000 g for 20 minutes at 4° C.
PDE4 Purification: The 6 Histidine-tagged PDE4 proteins are isolated from crude cell lysates by a batch-wise Ni-NTA purification strategy (QIAGEN). N-NTA resin is first pre-rinsed to remove ethanol preservative and equilibrated with Lysis Buffer. Cell lysate is added, (10 ml 50% Ni-NTA slurry resin per 50 ml lysate), and gently rotated on a mixer at 4° C. for 1-2 h. The sample is then centrifuged at 1,000 g for 5 minutes at 4° C. using Denley benchtop centrifuge. The supernatant is removed and the resin is washed 3 times with 50 ml ice cold Wash Buffer (50 mM Na2HP04, 300 mM NaCl and 20 mM imidazole) followed by centrifugation at 1,000 g for 5 minutes at 4° C. The 6His-tagged protein is eluted from the resin with 3×5 ml ice cold Elution Buffer (50 mM NaH2PO4, 300 mM NaCl, 250 mM imidazole) and collected by centrifugation at 1,000 g for 5 minutes at 4° C. The supernatants are then pooled before buffer exchange and concentration using a VivaScience 20 ml 5K 0.2 μM Concentrator. Samples are aliquoted and stored at −20° C.
PDE4 Assay: The assay is based on Amersham Pharmacia Biotech Scintillation Proximity Assay (SPA) technology. Enzyme is diluted with enzyme dilution buffer (10 mM Tris-HCl, pH 7.5 containing 1 mM EDTA) in order to obtain between 10-30% total substrate hydrolysis during the assay. The enzymatic reaction is started by adding 10 μl diluted enzyme to 80 μl substrate (0.1 μCi [3H]-cAMP, 1 μM cAMP) and 10 μl inhibitor solution in a 96-well microtiter plate. After 30-60 minutes incubation at room temperature the reaction is stopped by adding 50 μl PDE SPA beads (20 mg/ml). After 30 minutes the plate is centrifuged (3000 g, 10 minutes) and counted (Packard TopCount).
The concentration of DMSO is kept constant at 1% (v/v) throughout the assay. The concentration at which 50% inhibition occurs (IC50) is determined from inhibition—concentration curves in a conventional manner.

Compound `N#Cc1cccc(-c2nc(N3CCOCC3)cc3cccnc23)c1` [Example 12] has an IC50 (human PDE4D) of 2.5 nM.

In the case of `O=C(O)C1CCN(c2cc3cccnc3c(-c3ccc(F)c(Cl)c3)n2)CC1` [Example 39], the IC50 (human PDE4D) is reported as 8 nM.

`N#Cc1cccc(-c2nc(N3CCC(C(=O)[O-])CC3)cc3cccnc23)c1.[Li+]` [Example 3, 1-[8-(3-Cyano-phenyl)-[1,7]naphthyridin-6-yl]-piperidine-4-carboxylic acid, Lithium salt] gave an IC50 (human PDE4D) of 3.1 nM and a melting point of over 200 °C.

`N#Cc1cccc(-c2nc(N3CCNCC3)cc3cccnc23)c1` (as salt: hydrochloride) [Example 4, 3-(6-Piperazin-1-yl-[1,7]naphthyridin-8-yl)-benzonitrile] showed a melting point of over 250 °C.

For `CN1CCN(c2cc3cccnc3c(-c3cccc(C#N)c3)n2)CC1` [Example 15], the IC50 (human PDE4D) was 10.4 nM.

Work on `N#Cc1cccc(-c2nc(N3CCC(O)C3)cc3cccnc23)c1` (centres unmarked) [Example 1, 3-[6-(3-Hydroxy-pyrrolidin-1-yl)-[1,7]naphthyridin-8-yl]-benzonitrile] yielded an IC50 (human PDE4D) of 1 nM and a melting point of 132 to 133 °C.
